# Experimental data published in patent US20250295646A1, “METHODS OF USE OF T-TYPE CALCIUM CHANNEL MODULATORS” (Praxis Precision Medicines, Inc., priority 2022, published 2025).
# System: adult patients with essential tremor
# Test: Example 16: accelerometer-based (Kinesia ONE) TETRAS upper limb score
# Assay type: in vivo, human
# Description: Accelerometer (Kinesia ONE) TETRAS assessments were generally consistent with those conducted at the clinic. Accelerometer upper limb score values are summarized for Part A, the open-label titration phase of Part B, and the randomized withdrawal phase of Part B in Table 37, Table 38, and Table 39, respectively
# [1] = Day 70, Part B, baseline upper limb score ≥10
# [2] = Part A (N = 7), Day 1, Post - dose
# [3] = Part B Open-Label Titration (N = 17), Day 1, Post - dose
# [4] = Part B Open-Label Titration (N = 17), Day 7
# [5] = Part B Open-Label Titration (N = 17), Day 21
smiles,measurement,setting,value
"CC(C)(C)NC(=O)CN1CCC(CNC(=O)c2cc(F)cc(Cl)c2)CC1 [compound of formula (I), N-((1-(2-(tert-butylamino)-2-oxoethyl)piperidin-4-yl)methyl)-3-chloro-5-fluorobenzamide]","Accelerometer-Based Upper Limb Score, Change from Randomization, LS Mean (SE) for Difference (Formula (I) - Placebo)",[1],0.341 (1.8367)
same,"Accelerometer-Based Upper Limb Score, Change from Randomization, p-value for LS Mean Difference (Formula (I) - Placebo)",[1],0.8597
same,"Accelerometer-Based Upper Limb Score, LS Mean Percentage Change Difference (Formula (I) - Placebo)",[1],3.6%
same,"Accelerometer-Based Upper Limb Score, Change from Baseline, Median",[2],0.20
same,"Accelerometer-Based Upper Limb Score, observed, Median",[2],9.40
same,"Accelerometer-based Upper Limb Score, Change from Baseline, LS Mean",[2],0.417
same,"Accelerometer-based Upper Limb Score, Change from Baseline, Mean",[2],0.42
same,"Accelerometer-based Upper Limb Score, observed, Mean",[2],10.93
same,LS Mean Percentage Change in Tremor Amplitude,[2],7.7%
same,"Percentage Change from Baseline in Tremor Amplitude, Mean",[2],7.49%
same,"Percentage Change from Baseline in Tremor Amplitude, Median",[2],3.76%
same,"Accelerometer-Based Upper Limb Score, Change from Baseline, Median","Part A (N = 7), Day 7",−0.40
same,"Accelerometer-Based Upper Limb Score, observed, Median","Part A (N = 7), Day 7",10.38
same,"Accelerometer-based Upper Limb Score, Change from Baseline, LS Mean","Part A (N = 7), Day 7",−1.100
same,"Accelerometer-based Upper Limb Score, Change from Baseline, Mean","Part A (N = 7), Day 7",−1.10
same,"Accelerometer-based Upper Limb Score, observed, Mean","Part A (N = 7), Day 7",9.31
same,LS Mean Percentage Change in Tremor Amplitude,"Part A (N = 7), Day 7",−19.0%
same,"Percentage Change from Baseline in Tremor Amplitude, Mean","Part A (N = 7), Day 7",−15.89%
same,"Percentage Change from Baseline in Tremor Amplitude, Median","Part A (N = 7), Day 7",−7.39%
same,"Accelerometer-Based Upper Limb Score, Change from Baseline, Median","Part A (N = 7), Day 14",−1.15
same,"Accelerometer-Based Upper Limb Score, observed, Median","Part A (N = 7), Day 14",8.30
same,"Accelerometer-based Upper Limb Score, Change from Baseline, LS Mean","Part A (N = 7), Day 14",−1.300
same,"Accelerometer-based Upper Limb Score, Change from Baseline, Mean","Part A (N = 7), Day 14",−1.30
same,"Accelerometer-based Upper Limb Score, observed, Mean","Part A (N = 7), Day 14",8.23
same,LS Mean Percentage Change in Tremor Amplitude,"Part A (N = 7), Day 14",−22.1%
same,"Percentage Change from Baseline in Tremor Amplitude, Mean","Part A (N = 7), Day 14",−20.27%
same,"Percentage Change from Baseline in Tremor Amplitude, Median","Part A (N = 7), Day 14",−19.80%
same,"Accelerometer-Based Upper Limb Score, Change from Baseline, Median","Part A (N = 7), Day 21",−1.05
same,"Accelerometer-Based Upper Limb Score, observed, Median","Part A (N = 7), Day 21",10.98
same,"Accelerometer-based Upper Limb Score, Change from Baseline, LS Mean","Part A (N = 7), Day 21",−0.117
same,"Accelerometer-based Upper Limb Score, Change from Baseline, Mean","Part A (N = 7), Day 21",−0.12
same,"Accelerometer-based Upper Limb Score, observed, Mean","Part A (N = 7), Day 21",10.11
same,LS Mean Percentage Change in Tremor Amplitude,"Part A (N = 7), Day 21",−2.2%
same,"Percentage Change from Baseline in Tremor Amplitude, Mean","Part A (N = 7), Day 21",−2.75%
same,"Percentage Change from Baseline in Tremor Amplitude, Median","Part A (N = 7), Day 21",−18.25%
same,"Accelerometer-Based Upper Limb Score, Change from Baseline, LS Mean (SE)",[3],−0.633 (0.3456)
same,"Accelerometer-Based Upper Limb Score, Change from Baseline, Mean (SD)",[3],−0.56 (1.700)
same,"Accelerometer-Based Upper Limb Score, Change from Baseline, Median",[3],−0.60
same,"Accelerometer-Based Upper Limb Score, observed, Mean (SD)",[3],9.67 (3.109)
same,"Accelerometer-Based Upper Limb Score, observed, Median",[3],10.50
same,LS Mean Percentage Change in Tremor Amplitude,[3],−11.4%
same,"Percentage Change from Baseline in Tremor Amplitude, Mean (SD)",[3],−8.42 (25.587) %
same,"Percentage Change from Baseline in Tremor Amplitude, Median",[3],−10.87%
same,"Accelerometer-Based Upper Limb Score, Change from Baseline, LS Mean (SE)",[4],−1.235 (0.3722)
same,"Accelerometer-Based Upper Limb Score, Change from Baseline, Mean (SD)",[4],−1.15 (2.151)
same,"Accelerometer-Based Upper Limb Score, Change from Baseline, Median",[4],−1.20
same,"Accelerometer-Based Upper Limb Score, observed, Mean (SD)",[4],8.91 (3.335)
same,"Accelerometer-Based Upper Limb Score, observed, Median",[4],8.85
same,LS Mean Percentage Change in Tremor Amplitude,[4],−21.1%
same,"Percentage Change from Baseline in Tremor Amplitude, Mean (SD)",[4],−15.44 (29.596) %
same,"Percentage Change from Baseline in Tremor Amplitude, Median",[4],−19.95%
same,"Accelerometer-Based Upper Limb Score, Change from Baseline, LS Mean (SE)",[5],−1.835 (0.4715)
same,"Accelerometer-Based Upper Limb Score, Change from Baseline, Mean (SD)",[5],−1.57 (2.142)
same,"Accelerometer-Based Upper Limb Score, Change from Baseline, Median",[5],−1.00
same,"Accelerometer-Based Upper Limb Score, observed, Mean (SD)",[5],9.09 (2.989)
same,"Accelerometer-Based Upper Limb Score, observed, Median",[5],8.95
same,LS Mean Percentage Change in Tremor Amplitude,[5],−29.7%
same,"Percentage Change from Baseline in Tremor Amplitude, Mean (SD)",[5],−21.20 (27.676) %
